According to patent US10308689B2, “Dengue virus (DV) polypeptide sequences, T cell epitopes and methods and uses thereof” (LA JOLLA INSTITUTE FOR ALLERGY AND IMMUNOLOGY, priority 2010, dated 2019):

Test system: PBMC of healthy adult blood donors from Colombo, Sri Lanka
Experiment: Ex vivo IFNγ ELISPOT, HLA-matched PBMC of Sri Lankan blood donors
Type: cell-based, human
Parameters: Total Response per epitope: unit not given here
Settings: for # donors responded: number of donors responding to the epitope
[1] = restricting HLA allele and serotype as given
[2] = total over responding donors, restricting HLA allele and serotype as given
[3] = HLA allele, supertype and serotype
[4] = summed IFNγ ELISPOT response per epitope, HLA allele and serotype as given

Compound: CC[C@H](C)[C@H](NC(=O)[C@H](CO)NC(=O)[C@H](CCCCN)NC(=O)[C@H](CCCNC(=N)N)NC(=O)CNC(=O)[C@H](CO)NC(=O)[C@H](C)NC(=O)[C@@H](N)Cc1ccccc1)C(=O)N[C@H](C(=O)N[C@@H](CC(C)C)C(=O)O)[C@@H](C)O
- # donors responded [1]: 1
- Total Response per epitope [2]: 26.7

Compound: CC[C@H](C)[C@H](NC(=O)[C@H](C)NC(=O)CNC(=O)[C@@H](N)Cc1ccccc1)C(=O)N[C@@H](Cc1ccc(O)cc1)C(=O)NCC(=O)N[C@@H](C)C(=O)N[C@@H](C)C(=O)N[C@@H](Cc1ccccc1)C(=O)O
- # donors responded [1]: 3
- Total Response per epitope [2]: 798.3

Compound: CC[C@H](C)[C@H](NC(=O)[C@@H]1CCCN1C(=O)[C@H](C)NC(=O)[C@H](CC(N)=O)NC(=O)[C@H](CO)NC(=O)[C@H](CCC(N)=O)NC(=O)[C@@H]1CCCN1C(=O)[C@@H](N)Cc1ccccc1)C(=O)N[C@@H](CCSC)C(=O)N[C@@H](CC(=O)O)C(=O)O
- # donors responded [1]: 4
- Total Response per epitope [2]: 716.7

Compound: CC(C)C[C@H](NC(=O)[C@H](CO)NC(=O)[C@H](CC(N)=O)NC(=O)[C@H](CCC(=O)O)NC(=O)[C@H](CCCNC(=N)N)NC(=O)[C@H](CO)NC(=O)[C@@H](N)Cc1ccccc1)C(=O)N[C@@H](CO)C(=O)NCC(=O)N[C@H](C(=O)O)C(C)C
- # donors responded [1]: 1
- Total Response per epitope [2]: 101.7

Compound: CC[C@H](C)[C@H](NC(=O)[C@H](C)NC(=O)[C@H](C)NC(=O)[C@H](CCSC)NC(=O)[C@@H](NC(=O)[C@@H](NC(=O)[C@@H](N)Cc1ccccc1)[C@@H](C)O)[C@@H](C)CC)C(=O)N[C@@H](CC(C)C)C(=O)N[C@@H](C)C(=O)N[C@@H](Cc1ccc(O)cc1)C(=O)O
- # donors responded [1]: 2
- Total Response per epitope [2]: 675.0

Compound: CC[C@H](C)[C@H](NC(=O)[C@H](C)NC(=O)[C@H](CC(C)C)NC(=O)[C@H](CS)NC(=O)[C@H](CC(C)C)NC(=O)[C@@H](NC(=O)CNC(=O)[C@H](CCSC)NC(=O)[C@@H](NC(=O)[C@@H](N)Cc1ccccc1)[C@@H](C)O)C(C)C)C(=O)O
- # donors responded [1]: 1
- Total Response per epitope [2]: 58.3

Compound: CSCC[C@H](NC(=O)[C@@H](NC(=O)[C@@H](N)Cc1ccccc1)[C@@H](C)O)C(=O)N[C@@H](CCCNC(=N)N)C(=O)N[C@@H](Cc1c[nH]cn1)C(=O)N[C@@H](CCCCN)C(=O)N[C@@H](CCCCN)C(=O)N[C@@H](C)C(=O)N[C@H](C(=O)N[C@@H](Cc1ccc(O)cc1)C(=O)O)[C@@H](C)O
- # donors responded [1]: 4
- T cell response [SFC] (per epitope, ex vivo IFNγ SFC/10^6 PBMC): 1723 SFC
- # of responders (responding donors, HLA allele(s)): 4
- Total Response per epitope [2]: 1723.3

Compound: CC[C@H](C)[C@H](NC(=O)[C@@H]1CCCN1C(=O)[C@H](CCC(=O)O)NC(=O)[C@H](CCC(=O)O)NC(=O)[C@H](Cc1c[nH]cn1)NC(=O)CNC(=O)[C@@H]1CCCN1C(=O)CN)C(=O)N1CCC[C@H]1C(=O)N[C@@H](CCSC)C(=O)O
- # donors responded [1]: 3
- Total Response per epitope [2]: 235.0

Compound: CC(C)C[C@H](NC(=O)[C@H](CCC(=O)O)NC(=O)[C@H](CC(C)C)NC(=O)[C@H](CCCCN)NC(=O)CNC(=O)[C@H](CC(C)C)NC(=O)[C@H](Cc1c[nH]cn1)NC(=O)[C@H](Cc1c[nH]c2ccccc12)NC(=O)[C@@H]1CCCN1C(=O)CN)C(=O)O
- # donors responded [1]: 2
- Total Response per epitope [2]: 495.0

Compound: CSCC[C@H](NC(=O)[C@H](CCC(=O)O)NC(=O)[C@H](CC(C)C)NC(=O)[C@H](CCCCN)NC(=O)CNC(=O)[C@H](CC(C)C)NC(=O)[C@H](Cc1c[nH]cn1)NC(=O)[C@H](Cc1c[nH]c2ccccc12)NC(=O)[C@@H]1CCCN1C(=O)CN)C(=O)O
- # donors responded [1]: 3
- Total Response per epitope [2]: 90.0

Compound: CC[C@H](C)[C@H](NC(=O)[C@@H](NC(=O)[C@H](Cc1ccccc1)NC(=O)CNC(=O)[C@@H]1CCCN1C(=O)[C@@H](N)Cc1c[nH]cn1)[C@@H](C)O)C(=O)N[C@@H](CC(C)C)C(=O)N[C@@H](C)C(=O)N[C@@H](CC(C)C)C(=O)N[C@@H](Cc1ccccc1)C(=O)O
- # donors responded [1]: 9
- Total Response per epitope [2]: 3763.3

Compound: CC[C@H](C)[C@H](N)C(=O)N[C@@H](C)C(=O)N[C@@H](CC(N)=O)C(=O)N[C@@H](CCC(N)=O)C(=O)N[C@@H](C)C(=O)N[C@H](C(=O)N[C@H](C(=O)N[C@@H](CC(C)C)C(=O)N[C@@H](CCSC)C(=O)O)C(C)C)[C@@H](C)O
- # donors responded [1]: 7
- Total Response per epitope [2]: 1518.3

Compound: CC[C@H](C)[C@H](N)C(=O)N[C@@H](C)C(=O)N[C@H](C(=O)N[C@@H](CO)C(=O)N[C@@H](CCSC)C(=O)N[C@@H](C)C(=O)N[C@@H](CC(N)=O)C(=O)N[C@H](C(=O)N[C@@H](Cc1ccccc1)C(=O)O)[C@@H](C)CC)C(C)C
- # donors responded [1]: 6
- Total Response per epitope [2]: 1966.7

Compound: CC[C@H](C)[C@H](N)C(=O)N[C@@H](C)C(=O)N[C@H](C(=O)N[C@@H](CO)C(=O)N[C@H](C(=O)N[C@@H](C)C(=O)N[C@@H](CC(N)=O)C(=O)N[C@H](C(=O)N[C@@H](Cc1ccccc1)C(=O)O)[C@@H](C)CC)[C@@H](C)O)C(C)C
- # donors responded [1]: 2
- Total Response per epitope [2]: 415.0

Compound: CC[C@H](C)[C@H](N)C(=O)NCC(=O)N[C@H](C(=O)NCC(=O)N[C@H](C(=O)N[C@@H](CC(C)C)C(=O)N[C@@H](CC(C)C)C(=O)N[C@H](C(=O)N[C@@H](Cc1c[nH]c2ccccc12)C(=O)O)[C@@H](C)O)[C@@H](C)CC)[C@@H](C)CC
- # donors responded [1]: 1
- Total Response per epitope [2]: 525.0

Compound: C[C@H](NC(=O)[C@H](CCCNC(=N)N)NC(=O)CNC(=O)CNC(=O)[C@H](C)NC(=O)[C@H](CCC(=O)O)NC(=O)[C@H](C)NC(=O)[C@@H](N)[C@@H](C)O)C(=O)N[C@@H](Cc1ccc(O)cc1)C(=O)O
- Total Response per epitope (IFNγ ELISPOT response summed over responding donors, per epitope): 371.7
- # donors responded (HLA-matched PBMC, proteome-wide screen): 4

Compound: CC[C@H](C)[C@H](NC(=O)[C@H](C)NC(=O)[C@H](C)NC(=O)[C@H](CCSC)NC(=O)[C@@H](NC(=O)[C@@H](N)[C@@H](C)O)[C@@H](C)CC)C(=O)N[C@@H](CC(C)C)C(=O)N[C@@H](C)C(=O)N[C@@H](Cc1ccc(O)cc1)C(=O)O
- # donors responded [1]: 1
- Total Response per epitope [2]: 20.0

Compound: CC(C)[C@H](NC(=O)[C@H](CCCNC(=N)N)NC(=O)[C@H](CCC(N)=O)NC(=O)[C@H](CCC(N)=O)NC(=O)CNC(=O)[C@H](Cc1ccccc1)NC(=O)[C@@H]1CCCN1C(=O)[C@@H](N)[C@@H](C)O)C(=O)N[C@@H](Cc1ccccc1)C(=O)O
- # donors responded [3]: 3
- Total Response per epitope [4]: 438.3

Compound: CC[C@H](C)[C@H](NC(=O)[C@@H](NC(=O)[C@H](CC(=O)O)NC(=O)[C@H](CCSC)NC(=O)[C@@H](NC(=O)[C@H](C)NC(=O)CNC(=O)[C@H](CCCCN)NC(=O)[C@@H]1CCCN1C(=O)[C@@H](N)[C@@H](C)O)C(C)C)[C@@H](C)CC)C(=O)O
- # donors responded [3]: 1
- Total Response per epitope [4]: 105.0

Compound: CC(C)C[C@H](NC(=O)[C@H](CCC(N)=O)NC(=O)[C@H](CC(N)=O)NC(=O)[C@H](CC(=O)O)NC(=O)[C@H](CCC(N)=O)NC(=O)[C@@H]1CCCN1C(=O)[C@@H](N)[C@@H](C)O)C(=O)N[C@H](C(=O)N[C@@H](Cc1ccc(O)cc1)C(=O)O)[C@@H](C)O
- # donors responded [3]: 1
- Total Response per epitope [4]: 75.0

Compound: CC[C@H](C)[C@H](NC(=O)[C@@H](NC(=O)[C@H](CC(=O)O)NC(=O)[C@H](CCSC)NC(=O)[C@@H](NC(=O)[C@@H](NC(=O)CNC(=O)[C@H](CCCNC(=N)N)NC(=O)[C@@H]1CCCN1C(=O)[C@@H](N)[C@@H](C)O)[C@@H](C)O)C(C)C)[C@@H](C)CC)C(=O)O
- # donors responded [3]: 1
- Total Response per epitope [4]: 331.7

Compound: CC[C@H](C)[C@H](NC(=O)[C@H](C)NC(=O)[C@H](Cc1ccc(O)cc1)NC(=O)[C@H](Cc1c[nH]cn1)NC(=O)[C@@H](NC(=O)[C@@H](NC(=O)[C@H](CC(C)C)NC(=O)[C@H](CC(C)C)NC(=O)[C@H](CC(C)C)NC(=O)[C@@H](N)C(C)C)C(C)C)[C@@H](C)O)C(=O)O
- # donors responded [3]: 1
- Total Response per epitope [4]: 40.0

Compound: CSCC[C@H](NC(=O)[C@H](CC(N)=O)NC(=O)[C@@H](NC(=O)[C@H](CO)NC(=O)[C@H](CO)NC(=O)[C@@H](N)C(C)C)C(C)C)C(=O)N[C@H](C(=O)N[C@@H](CO)C(=O)N[C@@H](CCCNC(=N)N)C(=O)N[C@@H](CC(C)C)C(=O)O)C(C)C
- # donors responded [3]: 1
- Total Response per epitope [4]: 421.7

Compound: CC(C)C[C@H](NC(=O)[C@H](CCCNC(=N)N)NC(=O)[C@H](Cc1c[nH]cn1)NC(=O)[C@H](CC(=O)O)NC(=O)[C@H](CS)NC(=O)[C@H](CC(C)C)NC(=O)[C@H](CCC(N)=O)NC(=O)[C@@H](NC(=O)[C@H](Cc1ccc(O)cc1)NC(=O)[C@@H](N)C(C)C)[C@@H](C)O)C(=O)O
- # donors responded [3]: 1
- Total Response per epitope [4]: 21.7

Compound: C[C@H](NC(=O)[C@@H](N)Cc1c[nH]c2ccccc12)C(=O)N[C@@H](Cc1ccc(O)cc1)C(=O)N[C@@H](Cc1c[nH]cn1)C(=O)NCC(=O)N[C@@H](CO)C(=O)N[C@@H](Cc1ccc(O)cc1)C(=O)N[C@@H](CCC(=O)O)C(=O)N[C@H](C(=O)O)[C@@H](C)O
- # donors responded [3]: 3
- Total Response per epitope [4]: 1220.0

Compound: CC(C)C[C@H](NC(=O)CNC(=O)[C@H](C)NC(=O)CNC(=O)[C@H](C)NC(=O)[C@H](CC(C)C)NC(=O)[C@@H](N)Cc1ccc(O)cc1)C(=O)N[C@@H](C)C(=O)N[C@@H](Cc1ccccc1)C(=O)O
- # donors responded [3]: 3
- Total Response per epitope [4]: 340.0
